Where two headings read alike, the source gives them in different places.
What was measured:
Type in all cases: cell-based, mouse
[1] = tested on: β-galactosidase in CMV-LacZ C2C12 myotubes; experiment: CMV-LacZ secondary screen in C2C12 myotubes (β-Gal stabilizing assay); conditions: for CMV-LACZ in Myotubes (β-galactosidase activity relative to DMSO): CMV-LacZ C2C12 myotubes, 96-well format
Excerpt: In order to determine compounds that acted to stabilize β-gal in myogenic cells, a CMV-LacZ C2C12 cell line was used in a secondary screen. The EGFP gene from the pEGFP (Clontech) vector was replaced by LACZ PCR product with digests of the vector/PCR product performed using EcoRI (NEB) and NotI (NEB) and ligated using T4 DNA Ligase (NEB) following standard procedures to produce the CMV-LACZ vector. The LACZ gene was generated by PCR from the pBK-RSV (Stratagene) vector using primers LACZ EcoRI F- and LACZ NotI R-. The CMV-LACZ vector was then digested with AfIII (NEB) to linearize the construct, which was then transfected in C2C12 myoblasts using Lipofectamine 2000 (Invitrogen) following the manufacturer's instructions. […] Clonal lines were selected and screened for βgal levels using the myoblast FDG assay.
The assays were used the original 96-well format and new dose-response curves for myoblasts (N=3-6 replicates for each data point), myotubes (N=3-6 replicates for data point), and CMV-LacZ secondary assay (N=2 replicates for each data point) using concentrations of 0.5 μM, 1 μM, 5 μM, 10 μM, 20 μM, and 40 μM (Tables 9-16).

[2] = tested on: α7 integrin (LacZ reporter in α7βgal+/− myoblasts); experiment: Myoblast α7+/LacZ integrin FDG assay (Burkin assay in myoblasts, 96-well); conditions: α7+/LacZ myoblasts, 96-well; for fold induction at 0.5 µM / fold induction at 1 µM / fold induction at 5 µM / fold induction at 10 µM / fold induction at 20 µM / fold induction at 40 µM: Mus musculus, Myoblast, 48 h
[3] = tested on: α7 integrin (LacZ reporter in α7+/LacZ myotubes); experiment: Myotube α7 integrin FDG assay (Burkin assay in myotubes, 96-well); conditions: myotubes; for fold induction at 0.5 µM / fold induction at 1 µM / fold induction at 5 µM / fold induction at 10 µM / fold induction at 20 µM / fold induction at 40 µM: Mus musculus, Myotube
[4] = 5 uM, C2C12 CMV-LacZ myotubes, fold relative to DMSO
[5] = 10 uM, C2C12 CMV-LacZ myotubes, fold relative to DMSO
[6] = 20 uM, C2C12 CMV-LacZ myotubes, fold relative to DMSO
[7] = 40 uM, C2C12 CMV-LacZ myotubes, fold relative to DMSO

SMILES | CMV-LACZ in Myotubes, signal relative to DMSO [1, 4] | CMV-LACZ in Myotubes, signal relative to DMSO [1, 5] | CMV-LACZ in Myotubes, signal relative to DMSO [1, 6] | CMV-LACZ in Myotubes, signal relative to DMSO [1, 7] | Burkin Assay in Myoblasts, value relative to DMSO ([2]; 0.5 uM) | Burkin Assay in Myoblasts, value relative to DMSO ([2]; 1 uM) | Burkin Assay in Myoblasts, value relative to DMSO ([2]; 5 uM) | Burkin Assay in Myoblasts, value relative to DMSO ([2]; 10 uM) | Burkin Assay in Myoblasts, value relative to DMSO ([2]; 20 uM) | Burkin Assay in Myoblasts, value relative to DMSO ([2]; 40 uM) | Burkin Assay in Myotubes (signal relative to DMSO) ([3]; 0.5 uM) | Burkin Assay in Myotubes (signal relative to DMSO) ([3]; 1 uM) | Burkin Assay in Myotubes (signal relative to DMSO) ([3]; 5 uM) | Burkin Assay in Myotubes (signal relative to DMSO) ([3]; 10 uM) | Burkin Assay in Myotubes (signal relative to DMSO) ([3]; 20 uM) | Burkin Assay in Myotubes (signal relative to DMSO) ([3]; 40 uM) | other results
COc1cc(CNCc2ccc(C(=O)O)cc2)ccc1OCc1ccc(F)cc1.Cl [MLS001216405-01] | 0.9192 | 0.8008 | 1.345 | 1.08 | 1.132 | 0.9785 | 0.9945 | 0.9208 | 0.9202 | 0.7667 | 1.128 | 0.9927 | 1.124 | 0.9642 | 0.9387 | 0.8706 | –
O=Cc1ccc(C(=O)OCC(=O)N2CCCC2)cc1 [MLS001172577-01] | 0.8944 | 0.862 | 1.029 | 0.9627 | 0.996 | 0.9654 | 1.142 | 1.0758 | 1.0212 | 0.9431 | 1.122 | 1.0349 | 1.131 | 1.101 | 1.14 | 0.7324 | –
CC(C)N(CCO)C(=O)CCc1nnc(CCCc2ccccc2)o1 [MLS000733703-01] | 1.1188 | 0.8654 | 0.9583 | 0.7965 | 0.988 | 0.9592 | 0.8919 | 0.8734 | 0.8635 | 0.8463 | 1.063 | 1.128 | 0.8779 | 1.147 | 0.9957 | 0.894 | –
O=C(Nc1ccc(S(=O)(=O)Nc2nccs2)cc1)c1ccccc1OC(F)F [MLS002164687-01] | – | – | – | – | – | – | – | – | – | – | – | – | – | – | – | – | CMV-LACZ in Myotubes (β-galactosidase activity relative to DMSO) ([1]; 5 uM): 0.7625; CMV-LACZ in Myotubes (β-galactosidase activity relative to DMSO) ([1]; 10 uM): 0.922; CMV-LACZ in Myotubes (β-galactosidase activity relative to DMSO) ([1]; 20 uM): 0.968; CMV-LACZ in Myotubes (β-galactosidase activity relative to DMSO) ([1]; 40 uM): 1.113; fold induction at 0.5 µM ([2]; 0.5 uM, read-out: Burkin Assay in Myoblasts, value relative to DMSO): 0.775; fold induction at 1 µM ([2]; 1 uM, read-out: Burkin Assay in Myoblasts, value relative to DMSO): 0.819; fold induction at 5 µM ([2]; 5 uM, read-out: Burkin Assay in Myoblasts, value relative to DMSO): 0.695; fold induction at 10 µM ([2]; 10 uM, read-out: Burkin Assay in Myoblasts, value relative to DMSO): 0.849; fold induction at 20 µM ([2]; 20 uM, read-out: Burkin Assay in Myoblasts, value relative to DMSO): 0.838; fold induction at 40 µM ([2]; 40 uM, read-out: Burkin Assay in Myoblasts, value relative to DMSO): 0.819; fold induction at 0.5 µM ([3]; 0.5 uM, read-out: Burkin Assay in Myotubes (signal relative to DMSO)): 0.853; fold induction at 1 µM ([3]; 1 uM, read-out: Burkin Assay in Myotubes (signal relative to DMSO)): 1; fold induction at 5 µM ([3]; 5 uM, read-out: Burkin Assay in Myotubes (signal relative to DMSO)): 1.23; fold induction at 10 µM ([3]; 10 uM, read-out: Burkin Assay in Myotubes (signal relative to DMSO)): 1.37; fold induction at 20 µM ([3]; 20 uM, read-out: Burkin Assay in Myotubes (signal relative to DMSO)): 1.02; fold induction at 40 µM ([3]; 40 uM, read-out: Burkin Assay in Myotubes (signal relative to DMSO)): 1.06
Nc1nccc(-c2ccc(-n3cnc4ccccc43)cc2)n1 [MLS000763405-01] | – | – | – | – | – | – | – | – | – | – | – | – | – | – | – | – | fold induction at 5 µM ([1]; Mus musculus, C2C12, read-out: CMV-LACZ in Myotubes, signal relative to DMSO, 5 uM, C2C12 CMV-LacZ myotubes, fold relative to DMSO): 1.05; fold induction at 10 µM ([1]; Mus musculus, C2C12, read-out: CMV-LACZ in Myotubes, signal relative to DMSO, 10 uM, C2C12 CMV-LacZ myotubes, fold relative to DMSO): 0.876; fold induction at 20 µM ([1]; Mus musculus, C2C12, read-out: CMV-LACZ in Myotubes, signal relative to DMSO, 20 uM, C2C12 CMV-LacZ myotubes, fold relative to DMSO): 0.824; fold induction at 40 µM ([1]; Mus musculus, C2C12, read-out: CMV-LACZ in Myotubes, signal relative to DMSO, 40 uM, C2C12 CMV-LacZ myotubes, fold relative to DMSO): 0.802; fold induction at 0.5 µM ([2]; 0.5 uM, read-out: Burkin Assay in Myoblasts, signal relative to DMSO): 0.961; fold induction at 1 µM ([2]; 1 uM, read-out: Burkin Assay in Myoblasts, signal relative to DMSO): 1.03; fold induction at 5 µM ([2]; 5 uM, read-out: Burkin Assay in Myoblasts, signal relative to DMSO): 1.46; fold induction at 10 µM ([2]; 10 uM, read-out: Burkin Assay in Myoblasts, signal relative to DMSO): 1.53; fold induction at 20 µM ([2]; 20 uM, read-out: Burkin Assay in Myoblasts, signal relative to DMSO): 1.47; fold induction at 40 µM ([2]; 40 uM, read-out: Burkin Assay in Myoblasts, signal relative to DMSO): 1.08; fold induction at 0.5 µM ([3]; 0.5 uM, read-out: Burkin Assay in Myotubes, α7 integrin LacZ reporter signal relative to DMSO): 1.03; fold induction at 1 µM ([3]; 1 uM, read-out: Burkin Assay in Myotubes, α7 integrin LacZ reporter signal relative to DMSO): 1.14; fold induction at 5 µM ([3]; 5 uM, read-out: Burkin Assay in Myotubes, α7 integrin LacZ reporter signal relative to DMSO): 1.21; fold induction at 10 µM ([3]; 10 uM, read-out: Burkin Assay in Myotubes, α7 integrin LacZ reporter signal relative to DMSO): 1.11; fold induction at 20 µM ([3]; 20 uM, read-out: Burkin Assay in Myotubes, α7 integrin LacZ reporter signal relative to DMSO): 1.45; fold induction at 40 µM ([3]; 40 uM, read-out: Burkin Assay in Myotubes, α7 integrin LacZ reporter signal relative to DMSO): 1.38
